Measurements taken from patent US3950351A, “New derivatives of 2-benzamido-5-nitro thiazoles” (S.P.R.L. Phavic, priority 1973, dated 1976).

Tested on: Biomphalaria glabrata
Test: Molluscicidal activity test
Type: in vivo
Settings: 24 h exposure at 26°C, observed again after 24 h, 10, 1 and 0.1 ppm tested, read-out: dose at which active against Biomphalaria glabrata
Experimental: For determining the molluscicidal activity, the following test is used:
Two to four weeks old molluscs are used. Five molluscs having the same size are put in the same container and covered with a testing solution at a temperature of 26°C during 24 hours. After rinsing, the animals are again observed after 24 hours. The total duration of this test therefore is 48 hours.
Testing solutions containing respectively 10, 1 and 0.1 parts per million of the compounds to be tested in water having a hardness of 10° (hydrotimetric) are used.
The sensitivity of the mollusc strain is standardized with known reference molluscicides such as Niclosamide (Registered Trademark).

SMILES | minimal effective concentration [µg/mL]
CC(=O)Oc1ccccc1C(=O)Nc1ncc([N+](=O)[O-])s1 [PH 5776] | 1
CC(=O)Oc1cccc(C(=O)Nc2ncc([N+](=O)[O-])s2)c1 [PH 6045] | 10
CCC(=O)Oc1ccccc1C(=O)Nc1ncc([N+](=O)[O-])s1 [PH 6049] | 1
CC(=O)Oc1ccc(Cl)cc1C(=O)Nc1ncc([N+](=O)[O-])s1 [PH 6057] | 1
COc1cc(C(=O)Nc2ncc([N+](=O)[O-])s2)cc(OC)c1OC(C)=O [PH 6059] | 10
CC(=O)Oc1ccc(Br)cc1C(=O)Nc1ncc([N+](=O)[O-])s1 [PH 6103] | 1
CC(=O)Oc1cccc(C(=O)Nc2ncc([N+](=O)[O-])s2)c1OC(C)=O [PH 6239] | 10

Tested on: Hymenolepis nana
Test: Test for anthelminthics, cestodes (R. CAVIER; R. CAVIER and M. J. NOTTEGHEM)
Type: in vivo
Parameters: Hymenolepis nana: (4) percentage of activity: concentration or dose not given beside the values
Settings: Table II; 10 subjects
Excerpt: (§1) Biological tests have been performed with a great number of compounds of formula I, using the following techniques: 1)- Test for amoebicidal activity described by R. CAVIER, Ann. pharm. franc. 1960, 18, pages 583-589 and by R. CAVIER and J. CENAC, Bull. Soc. Path. exot. 1972, 65, pages 399-404. 2) - Test for trichomonacidal activity described by R. Cavier and P. BUOT, Ann. Pharm. franc., 1964, 22, pages 211-216 and by R. CAVIER and J. CENAC, Semaine des Hopitaux, 1972, 48, pages 391-394. 3)- Tests for anthelminthics described for nematodes (such as Syphacia obvelata) by R. CAVIER, Bull. Soc. Path. exot. 1962, 55, pages 412-417, and for cestodes (such as Hymenolepis nana), by R. CAVIER, Ann. pharm. franc. 1956, 14, pages 545-552 and by R. CAVIER and M. J. NOTTEGHEM, Ann. Pharm. franc., 1968, 28, pages 603-606.

SMILES | Hymenolepis nana: (2) number of dead subjects | Hymenolepis nana: (3) number of subjects from which the parasite has been eradicated | Hymenolepis nana: (4) percentage of activity [%]
CC(=O)Oc1ccccc1C(=O)Nc1ncc([N+](=O)[O-])s1 [PH 5776] | 0 | 10 | 100
CC(=O)Oc1cccc(C(=O)Nc2ncc([N+](=O)[O-])s2)c1 [PH 6045] | 0 | 4 | 40
CC(=O)Oc1ccc(C(=O)Nc2ncc([N+](=O)[O-])s2)cc1 [PH 6046] | 0 | 3 | 30
CCC(=O)Oc1ccccc1C(=O)Nc1ncc([N+](=O)[O-])s1 [PH 6049] | 0 | 10 | 100
CC(=O)Oc1ccc(OC(C)=O)c(C(=O)Nc2ncc([N+](=O)[O-])s2)c1 [PH 6056] | 0 | 6 | 60
CC(=O)Oc1ccc(Cl)cc1C(=O)Nc1ncc([N+](=O)[O-])s1 [PH 6057] | 0 | 7 | 70
CC(=O)Oc1ccc(C(=O)Nc2ncc([N+](=O)[O-])s2)c(OC(C)=O)c1 [PH 6058] | 0 | 2 | 20
COc1cc(C(=O)Nc2ncc([N+](=O)[O-])s2)cc(OC)c1OC(C)=O [PH 6059] | 0 | 1 | 10
CC(=O)Oc1ccc(Br)cc1C(=O)Nc1ncc([N+](=O)[O-])s1 [PH 6103] | 0 | 4 | 40
CC(=O)Oc1cc(OC(C)=O)cc(C(=O)Nc2ncc([N+](=O)[O-])s2)c1 [PH 6161] | 0 | 0 | 0
CC(=O)Oc1ccc(C(=O)Nc2ncc([N+](=O)[O-])s2)cc1OC(C)=O [PH 6162] | 0 | 1 | 10
CC(=O)Oc1cc(C(=O)Nc2ncc([N+](=O)[O-])s2)cc(OC(C)=O)c1OC(C)=O [PH 6177] | 0 | 0 | 0
COc1cc(C(=O)Nc2ncc([N+](=O)[O-])s2)ccc1OC(C)=O [PH 6196] | 0 | 0 | 0
CC(=O)Oc1cccc(C(=O)Nc2ncc([N+](=O)[O-])s2)c1OC(C)=O [PH 6239] | 0 | 2 | 20

Tested on: Syphacia obvelata
Test: Test for anthelminthics, nematodes (R. CAVIER)
Type: in vivo
Parameters: Syphacia: (4) percentage of activity: concentration or dose not given beside the values
Settings: Table II; 10 subjects
Excerpt: as §1

SMILES | Syphacia: (2) number of dead subjects | Syphacia: (3) number of subjects from which the parasite has been eradicated | Syphacia: (4) percentage of activity [%]
CC(=O)Oc1ccccc1C(=O)Nc1ncc([N+](=O)[O-])s1 [PH 5776] | 0 | 6 | 60
CC(=O)Oc1cccc(C(=O)Nc2ncc([N+](=O)[O-])s2)c1 [PH 6045] | 0 | 0 | 0
CC(=O)Oc1ccc(C(=O)Nc2ncc([N+](=O)[O-])s2)cc1 [PH 6046] | 0 | 2 | 20
CCC(=O)Oc1ccccc1C(=O)Nc1ncc([N+](=O)[O-])s1 [PH 6049] | 0 | 2 | 20
CC(=O)Oc1ccc(OC(C)=O)c(C(=O)Nc2ncc([N+](=O)[O-])s2)c1 [PH 6056] | 0 | 1 | 10
CC(=O)Oc1ccc(Cl)cc1C(=O)Nc1ncc([N+](=O)[O-])s1 [PH 6057] | 0 | 2 | 20
CC(=O)Oc1ccc(C(=O)Nc2ncc([N+](=O)[O-])s2)c(OC(C)=O)c1 [PH 6058] | 0 | 2 | 20
COc1cc(C(=O)Nc2ncc([N+](=O)[O-])s2)cc(OC)c1OC(C)=O [PH 6059] | 0 | 2 | 20
CC(=O)Oc1ccc(Br)cc1C(=O)Nc1ncc([N+](=O)[O-])s1 [PH 6103] | 0 | 2 | 20
CC(=O)Oc1cc(OC(C)=O)cc(C(=O)Nc2ncc([N+](=O)[O-])s2)c1 [PH 6161] | 0 | 7 | 70
CC(=O)Oc1ccc(C(=O)Nc2ncc([N+](=O)[O-])s2)cc1OC(C)=O [PH 6162] | 0 | 2 | 20
CC(=O)Oc1cc(C(=O)Nc2ncc([N+](=O)[O-])s2)cc(OC(C)=O)c1OC(C)=O [PH 6177] | 0 | 0 | 0
COc1cc(C(=O)Nc2ncc([N+](=O)[O-])s2)ccc1OC(C)=O [PH 6196] | 0 | 0 | 0
CC(=O)Oc1cccc(C(=O)Nc2ncc([N+](=O)[O-])s2)c1OC(C)=O [PH 6239] | 0 | 1 | 10

Tested on: not listed separately
Test: Acute toxicity in mice
Settings: mouse, in vivo, ip, intraperitoneal administration
Excerpt: Toxicity investigations have shown that the compounds of formula I have a very low acute toxicity both on oral administration and on intraperitoneal administration to mice.

SMILES | LD50 [mg/kg]
CC(=O)Oc1ccccc1C(=O)Nc1ncc([N+](=O)[O-])s1 [PH 5776] | > 95

Same assay, conditions: mouse, in vivo, oral administration

SMILES | LD50 [mg/kg]
CC(=O)Oc1ccccc1C(=O)Nc1ncc([N+](=O)[O-])s1 [PH 5776] | > 4000

Tested on: Hymenolepis nana
Test: Tests on Hymenolepis nana in mice, anthelminthic activity, single dose (technique of R. CAVIER)
Type: in vivo
Parameters: Mortality: unit not given here
Settings: 25 mg/kg
Excerpt: Tests on Hymenolepis nana in mice have also been performed in order to determine the anthelminthic activity of various cmpounds of formula I, according to the technique of R. CAVIER. […] Four hours later, the animals have been purged by means of sodium sulfate.

SMILES | Mice from which parasite has been eradicated, number | Mice from which parasite has been eradicated, percentage [%] | Mortality
CC(=O)Oc1ccccc1C(=O)Nc1ncc([N+](=O)[O-])s1 [PH 5776] | 20 | 100 | 0
CCC(=O)Oc1ccccc1C(=O)Nc1ncc([N+](=O)[O-])s1 [PH 6049] | 8 | 40 | 0

Same assay, conditions: 50 mg/kg

SMILES | Mice from which parasite has been eradicated, number | Mice from which parasite has been eradicated, percentage [%] | Mortality
CC(=O)Oc1ccccc1C(=O)Nc1ncc([N+](=O)[O-])s1 [PH 5776] | 30 | 100 | 0
CCC(=O)Oc1ccccc1C(=O)Nc1ncc([N+](=O)[O-])s1 [PH 6049] | 14 | 70 | 0

Same assay, conditions: 100 mg/kg

SMILES | Mice from which parasite has been eradicated, number | Mice from which parasite has been eradicated, percentage [%] | Mortality
CC(=O)Oc1ccccc1C(=O)Nc1ncc([N+](=O)[O-])s1 [PH 5776] | 10 | 100 | 0
CCC(=O)Oc1ccccc1C(=O)Nc1ncc([N+](=O)[O-])s1 [PH 6049] | 18 | 90 | 0

Same assay, conditions: 200 mg/kg

SMILES | Mice from which parasite has been eradicated, number | Mice from which parasite has been eradicated, percentage [%] | Mortality
CC(=O)Oc1ccccc1C(=O)Nc1ncc([N+](=O)[O-])s1 [PH 5776] | 10 | 100 | 0
CCC(=O)Oc1ccccc1C(=O)Nc1ncc([N+](=O)[O-])s1 [PH 6049] | 20 | 100 | 0
